Experiments:
A549 = experiment: MTT cytotoxicity test, A549 (human lung cancer); assay type: cell-based; details: continuous incubation over 72 h, test MTT
Description: MTT assay is a colorimetric assay used to measure proliferation, viability and cytotoxicity of cells. It consists in decomposition of a yellow tetrazolium salt MTT (4,5-dimethyl-2-thiazolyl)-2,5-diphenyltetrazolium bromide) to the water-insoluble purple dye formazan by mitochondrial enzyme succinate-tetrazolium reductase 1. MTT reduction occurs only in living cells. Data analysis consists in determining IC50 concentration of the protein (in ng/ml), at which the 50% reduction in the number of cells occurs in the population treated compared to control cells. Results were analyzed using GraphPad Prism 5.0 software. The test was performed according to the literature descriptions (Cells, J E, (1998). Cell Biology, a Laboratory Handbook, second edition, Academic Press, San Diego; Yang, Y., Koh, L W, Tsai, J H., (2004); Involvement of viral and chemical factors with oral cancer in Taiwan, Jpn J Clin Oncol, 34 (4), 176-183). Cell culture medium was diluted to a defined density (10^4-10^5 cells per 100 μl). Then 100 μl of appropriately diluted cell suspension was applied to a 96-well plate in triplicates. Thus prepared cells were incubated for 24 h at 37° C. in 5% or 10% CO2, depending on the medium used, and then to the cells (in 100 μl of medium) further 100 μl of the medium containing various concentrations of tested proteins were added. In the case of combination hTRAIL114-281 and p21WAF effector protein, 100 μl of the medium containing mixture of hTRAIL114-281 and p21WAF effector protein in molar ratio 1:1 was added. After incubation of the cells with tested proteins over the period of next 72 hours, which is equivalent to 3-4 times of cell division, the medium with the test protein was added with […] of MTT working solution [5 mg/ml], and incubation was continued for 3 h at 37° C. in 5% CO2. Then the medium with MTT solution was removed, and formazan crystals were dissolved by adding 100 μl of DMSO. After stirring, the absorbance was measured at 570 nm (reference filter 690 nm). […]

NCI-H460 = details: continuous incubation over 72 h, test MTT
Experimental: Data analysis consists in determining IC50 concentration of the protein (in ng/ml), at which the 50% reduction in the number of cells occurs in the population treated compared to control cells. Results were analyzed using GraphPad Prism 5.0 software. […] Cell culture medium was diluted to a defined density (10^4-10^5 cells per 100 μl). Then 100 μl of appropriately diluted cell suspension was applied to a 96-well plate in triplicates. Thus prepared cells were incubated for 24 h at 37° C. in 5% or 10% CO2, depending on the medium used, and then to the cells (in 100 μl of medium) further 100 μl of the medium containing various concentrations of tested proteins were added. […] After incubation of the cells with tested proteins over the period of next 72 hours, which is equivalent to 3-4 times of cell division, the medium with the test protein was added with 20 ml of MTT working solution [5 mg/ml], and incubation was continued for 3 h at 37° C. in 5% CO2. Then the medium with MTT solution was removed, and formazan crystals were dissolved by adding 100 μl of DMSO. After stirring, the absorbance was measured at 570 nm (reference filter 690 nm).
Each experiment represents the average value of at least two independent experiments performed in triplicates.

[1] = tested on: human liver cancer model HepG2; experiment: HepG2 liver cancer xenograft in Crl:SHO-Prkdc^scidHr^hr mice; assay type: in vivo; details: 30 mg/kg i.v. six times every second day, 33rd day
Experimental: Antitumor activity of protein preparations was tested in a mouse model of human colon cancer HCT116, human colon cancer Colo205, human colon cancer model SW620, human liver cancer model HepG2, and human lung cancer models NCI-H460 and NCI-H460-Luc2.
The HepG2cells were maintained in MEM (HyClone, Logan, Utah, USA) supplemented with 10% fetal calf serum and 2 mM glutamine. On the day of mice grafting, the cells were detached from the support by washing the cells with trypsin (Invitrogen), then the cells were centrifuged at 1300 rpm, 4°C., 8 min., suspended in HBSS buffer (Hanks medium), counted and diluted to the concentration of 25×10^6 cells/ml.
Examination of antitumor activity of proteins of the invention was conducted on 7-9 week-old CD-nude (Crl:CD1-Foxn1^nu 1) or 4-6 week-old Crl:SHO-Prkdc^scidHr^hr mice obtained from Charles River Germany. Mice were kept under specific pathogen-free conditions with free access to food and demineralised water (ad libitum). All experiments on animals were carried in accordance with the guidelines: “Interdisciplinary Principles and Guidelines for the Use of Animals in Research. Marketing and Education” issued by the New York Academy of Sciences' Ad Hoc Committee on Animal Research and were approved by the IV Local Ethics Committee on Animal Experimentation in Warsaw (No. 71/2009). […]

- NCI-H460 IC50 (NCI-H460): 69.68 ng/mL
Substance: rhTRAIL114-281: recombinant human soluble TRAIL, amino acids 114-281 of hTRAIL, used as the comparative reference
- A549 IC50 (A549): >10000 ng/mL
- tumor growth inhibition (TGI) relative to the control [1]: 12.6%

— patent publication US20140031283A1, “ANTICANCER FUSION PROTEIN” (ADAMED SP. Z O.O., priority 2011, published 2014)
